Test results as given in patent publication US20220400680A1, “USE OF ACYLCYANAMIDES OR SALTS THEREOF FOR REGULATING PLANT GROWTH” (Alzchem Trostberg GmbH, priority 2019, published 2022).

Columns and labels:
[1] = system: Table apple, type Zabergäu-Renette (C2); test: Greenhouse test, cut apple branches C2 dipped in test solution, bud development stage; type: in vivo, Malus domestica; parameters: key to Bud development stage, apple branches C2: Stage 0: Buds unchanged; Stage 1: Buds slightly swollen, first green tips visible; Stage 2: strongly swollen, green buds; Stage 3: Buds before breaking open, leaf or flower root already visible; Stage 4: Flower buds fully developed, but still closed, white petals already visible. In the case of the grapevine, stage 4 was the unfolding of the first leaves; Stage 5: Flowers fully open or, in the case of grapevine, unfolding of the flower roots (“Gescheine”) on the fully leafed sprouts
Experimental: Greenhouse tests were conducted using cut fruit tree branches placed in water jars and maintained under controlled conditions with temperature regulation at approximately 22° C. and natural lighting. C2: Table Apple, Type […] Table apple: Malus domestica type […] first developed in 1885 as a chance seedling in Hausen a.d. Zaber/Baden-Württemberg and initially grown as 'Hausener Graue […]'. No defined storage type; requires heavy soils (loam). Tree growth initially strong with oblique upright leading branches, later medium with flat branches. Crown broad and flat-spherical with flat fruiting wood. Leaves large, broad oval and with clearly separated tip. Triploid type with late and long-lasting flowering. Yield starting early, medium high and somewhat alternate. […] The test solutions were prepared directly, i.e. without intermediate preparation of a concentrate. For each of the test substances A-1 to A-13, an aqueous solution of 0.15 mol of the test substance and 0.15 g BreakThru® OE-446 was prepared and filled up to a total of 500 g with water. Of bis-cyanamides A-14 and A-15, 0.075 mol each was filled up to 500 g in an analogous manner. These test solutions (in combination with the above 4 species/types Cx) were given the test numbers Cx-A1 to Cx-A15. […] This was done with the following evaluation scale: • Stage 0: […] Flower buds fully developed, but still closed, white petals already visible. […] Flowers fully open or, in the case of grapevine, unfolding of the flower roots (“[…]”) on the fully leafed sprouts.

[2] = system: Table apple, type Boiken apple (C1); test: Greenhouse test, cut apple branches C1 dipped in test solution, bud development stage; type: in vivo, Malus domestica; parameters: key to Bud development stage, apple branches C1: Stage 0: Buds unchanged; Stage 1: Buds slightly swollen, first green tips visible; Stage 2: strongly swollen, green buds; Stage 3: Buds before breaking open, leaf or flower root already visible; Stage 4: Flower buds fully developed, but still closed, white petals already visible. In the case of the grapevine, stage 4 was the unfolding of the first leaves; Stage 5: Flowers fully open or, in the case of grapevine, unfolding of the flower roots (“Gescheine”) on the fully leafed sprouts; conditions: for Dormancy-breaking effect according to the definition, apple C1: stage 4 reached or exceeded after 36 days vs negative control; for Good to very good dormancy-breaking effect, apple C1: stage 4 reached or exceeded after 27 days vs negative control
Experimental: Greenhouse tests were conducted using cut fruit tree branches placed in water jars and maintained under controlled conditions with temperature regulation at approximately 22° C. and natural lighting. C1: Table Apple, Type Boiken Apple Table apple: Malus domestica type Boiken first described in 1828 in Bremen after Deichvogt Boiken. Apple type for rough locations and for almost every soil suitable scattered fruit type, whereby heavy soils and not too warm locations are required. Tree growth initially strong, later medium. Older crowns become broadly spherical and are loosely branched. Flowering starting medium-late and long lasting, petals large with little pink. Yield starting late (October) and irregular; with long shelf life and pressure resistance. […] The test solutions were prepared directly, i.e. without intermediate preparation of a concentrate. For each of the test substances A-1 to A-13, an aqueous solution of 0.15 mol of the test substance and 0.15 g BreakThru® OE-446 was prepared and filled up to a total of 500 g with water. Of bis-cyanamides A-14 and A-15, 0.075 mol each was filled up to 500 g in an analogous manner. These test solutions (in combination with the above 4 species/types Cx) were given the test numbers Cx-A1 to Cx-A15. […] This was done with the following evaluation scale: • Stage 0: […] Flower buds fully developed, but still closed, white petals already visible. […] Flowers fully open or, in the case of grapevine, unfolding of the flower roots (“[…]”) on the fully leafed sprouts.

[3] = system: Grape, type Pinot Noir (C4); test: Greenhouse test, cut wine sprouts C4 dipped in test solution, bud development stage; type: in vivo, Vitis vinifera subsp. vinifera; parameters: key to Bud development stage, wine sprouts C4: Stage 0: Buds unchanged; Stage 1: Buds slightly swollen, first green tips visible; Stage 2: strongly swollen, green buds; Stage 3: Buds before breaking open, leaf or flower root already visible; Stage 4: Flower buds fully developed, but still closed, white petals already visible. In the case of the grapevine, stage 4 was the unfolding of the first leaves; Stage 5: Flowers fully open or, in the case of grapevine, unfolding of the flower roots (“Gescheine”) on the fully leafed sprouts; conditions: for Dormancy-breaking effect according to the definition, wine C4: stage 4 reached or exceeded after 36 days vs negative control
Experimental: Greenhouse tests were conducted using cut fruit tree branches placed in water jars and maintained under controlled conditions with temperature regulation at approximately 22° C. and natural lighting. C4: Grape, Type Pinot Noir Grape: Vitis vinifera subsp. vinifera type Pinot Noir is an important and high quality red wine type that has existed for possibly 2000 years. It is cultivated all over the world because the type produces high quality red wines and has sufficient winter frost resistance. The type requires early and good areas with deep, warm, medium-heavy and fertile soils with good water supply. Pinot Noir produces regular, medium-high to high yields. However, there are a large number of clones that differ in yield, berry size and looseness. […] The test solutions were prepared directly, i.e. without intermediate preparation of a concentrate. For each of the test substances A-1 to A-13, an aqueous solution of 0.15 mol of the test substance and 0.15 g BreakThru® OE-446 was prepared and filled up to a total of 500 g with water. Of bis-cyanamides A-14 and A-15, 0.075 mol each was filled up to 500 g in an analogous manner. These test solutions (in combination with the above 4 species/types Cx) were given the test numbers Cx-A1 to Cx-A15. […] This was done with the following evaluation scale: • Stage 0: […] Flower buds fully developed, but still closed, white petals already visible. […] Flowers fully open or, in the case of grapevine, unfolding of the flower roots (“[…]”) on the fully leafed sprouts.

[4] = system: Table cherry, type Burlat (C3); test: Greenhouse test, cut cherry branches C3 dipped in test solution, bud development stage; type: in vivo, Prunus avium; parameters: key to Bud development stage, cherry branches C3: Stage 0: Buds unchanged; Stage 1: Buds slightly swollen, first green tips visible; Stage 2: strongly swollen, green buds; Stage 3: Buds before breaking open, leaf or flower root already visible; Stage 4: Flower buds fully developed, but still closed, white petals already visible. In the case of the grapevine, stage 4 was the unfolding of the first leaves; Stage 5: Flowers fully open or, in the case of grapevine, unfolding of the flower roots (“Gescheine”) on the fully leafed sprouts; conditions: for Good to very good dormancy-breaking effect, cherry C3: stage 4 reached or exceeded after 21 days vs negative control; for Dormancy-breaking effect according to the definition, cherry C3: stage 4 reached or exceeded after 27 days vs negative control
Experimental: Greenhouse tests were conducted using cut fruit tree branches placed in water jars and maintained under controlled conditions with temperature regulation at approximately 22° C. and natural lighting. C3: Table Cherry, Type Burlat Table cherry: Prunus avium type Bigarreau Burlat or […] is a strong-growing somewhat sparse growing sweet cherry tree with horizontal side sprouts. The type has been known since 1930 and is one of the most important types in commercial cultivation. […] Medium but regular yields identify the type as a secondary type for early and dry areas. […] The test solutions were prepared directly, i.e. without intermediate preparation of a concentrate. For each of the test substances A-1 to A-13, an aqueous solution of 0.15 mol of the test substance and 0.15 g BreakThru® OE-446 was prepared and filled up to a total of 500 g with water. Of bis-cyanamides A-14 and A-15, 0.075 mol each was filled up to 500 g in an analogous manner. These test solutions (in combination with the above 4 species/types Cx) were given the test numbers Cx-A1 to Cx-A15. […] This was done with the following evaluation scale: • Stage 0: […] Flower buds fully developed, but still closed, white petals already visible. […] Flowers fully open or, in the case of grapevine, unfolding of the flower roots (“[…]”) on the fully leafed sprouts.

[5] = T1 (14 d), 0.15 mol (A-14, A-15: 0.075 mol) per 500 g solution

Row | SMILES | Bud development stage, apple branches C2 [1, 5] | Bud development stage, apple branches C2 ([1]; T2 (16 d)) | Bud development stage, apple branches C2 ([1]; T3 (21 d)) | Bud development stage, apple branches C2 ([1]; T4 (27 d)) | Bud development stage, apple branches C2 ([1]; T5 (36 d)) | Bud development stage, apple branches C2 ([1]; T6 (56 d)) | Bud development stage, apple branches C1 [2, 5] | Bud development stage, apple branches C1 ([2]; T2 (16 d)) | Bud development stage, apple branches C1 ([2]; T3 (21 d)) | Bud development stage, apple branches C1 ([2]; T4 (27 d)) | Bud development stage, apple branches C1 ([2]; T5 (36 d)) | Bud development stage, apple branches C1 ([2]; T6 (56 d)) | Dormancy-breaking effect according to the definition, apple C1 [2] | Bud development stage, wine sprouts C4 [3, 5] | Bud development stage, wine sprouts C4 ([3]; T2 (16 d)) | Bud development stage, wine sprouts C4 ([3]; T3 (21 d)) | Bud development stage, wine sprouts C4 ([3]; T4 (27 d)) | Bud development stage, wine sprouts C4 ([3]; T5 (36 d)) | Bud development stage, wine sprouts C4 ([3]; T6 (56 d)) | Bud development stage, cherry branches C3 [4, 5] | also measured
1 | N#CNC(=O)CCC(=O)NC#N.[Na].[Na] [Example A-14, Disodium-(3-(cyano-amidocarbonyl)-propionyl-cyanamide)] | 0 | 0 | 0 | 1 | 3 | 4 | 1 | 1 | 2 | 3 | 5 | 5 | dormancy-breaking effect | 0 | 0 | 0 | 2 | 4 | 4 | 0 | Dormancy-breaking effect according to the definition, wine C4 [3]: dormancy-breaking effect; Bud development stage, cherry branches C3 ([4]; T2 (16 d)): 1; Bud development stage, cherry branches C3 ([4]; T3 (21 d)): 4; Bud development stage, cherry branches C3 ([4]; T4 (27 d)): 5; Bud development stage, cherry branches C3 ([4]; T5 (36 d)): 5; Bud development stage, cherry branches C3 ([4]; T6 (56 d)): 5; Good to very good dormancy-breaking effect, cherry C3 [4]: good to very good dormancy-breaking effect; Dormancy-breaking effect according to the definition, cherry C3 [4]: dormancy-breaking effect
2 | CCCCCCCCCCCC(=O)NC#N.[Na] [Example A-10, Sodium dodecanoyl cyanamide] | 0 | 0 | 0 | 1 | 2 | 4 | 1 | 2 | 4 | 5 | 5 | 5 | dormancy-breaking effect | 0 | 0 | 0 | 1 | 2 | 4 | 1 | Good to very good dormancy-breaking effect, apple C1 [2]: good to very good dormancy-breaking effect; Bud development stage, cherry branches C3 ([4]; T2 (16 d)): 2; Bud development stage, cherry branches C3 ([4]; T3 (21 d)): 4; Bud development stage, cherry branches C3 ([4]; T4 (27 d)): 4; Bud development stage, cherry branches C3 ([4]; T5 (36 d)): 4; Bud development stage, cherry branches C3 ([4]; T6 (56 d)): 5; Good to very good dormancy-breaking effect, cherry C3 [4]: good to very good dormancy-breaking effect; Dormancy-breaking effect according to the definition, cherry C3 [4]: dormancy-breaking effect
3 | N#CNC=O.[Na] [Example A-2, Sodium Formylcyanamide] | 0 | 0 | 1 | 3 | 5 | 5 | 0 | 0 | 4 | 5 | 5 | 5 | dormancy-breaking effect | 0 | 1 | 3 | 5 | 5 | 5 | 1 | Dormancy-breaking effect according to the definition, apple C2 ([1]; stage 4 reached or exceeded after 36 days vs negative control): dormancy-breaking effect; Good to very good dormancy-breaking effect, apple C1 [2]: good to very good dormancy-breaking effect; Effect compared with cyanamide, wine C4 ([3]; in vivo): equal effect with cyanamide; Good to very good dormancy-breaking effect, wine C4 ([3]; stage 4 reached or exceeded after 27 days vs negative control): good to very good dormancy-breaking effect; Dormancy-breaking effect according to the definition, wine C4 [3]: dormancy-breaking effect; Bud development stage, cherry branches C3 ([4]; T2 (16 d)): 2; Bud development stage, cherry branches C3 ([4]; T3 (21 d)): 5; Bud development stage, cherry branches C3 ([4]; T4 (27 d)): 5; Bud development stage, cherry branches C3 ([4]; T5 (36 d)): 5; Bud development stage, cherry branches C3 ([4]; T6 (56 d)): 5; Good to very good dormancy-breaking effect, cherry C3 [4]: good to very good dormancy-breaking effect; Dormancy-breaking effect according to the definition, cherry C3 [4]: dormancy-breaking effect
